In the supplement of paper PMC6045584:
± gives the standard deviation of the averaged measurements.

The test systems below were run with NC1(c2ccc(-c3nc4ccn5c(=O)[nH]nc5c4cc3-c3ccccc3)cc2)CCC1 [MK2206] (assay: surviving fraction relative to DMSO-only wells; higher = less growth inhibition). Settings: 500 nM; exposure time: 5 days.
How it was run: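 After seeding at 250–500 cells per well in 384-well plates and a 24-hour wait, log-phase tumour cell lines were exposed without interruption for five days to inhibitors at 0.5, 1, 5, 10, 50, 100, 500 and 1000 nM. CellTiter-Glo luminescence was recorded after 10 minutes at room temperature. Viability is reported as surviving fraction, the luminescence normalised to the median of DMSO-only wells.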
Test System 22RV1 PROSTATE has a surviving fraction of 0.554 ± 0.05.
93VU HEADNECK gave a surviving fraction of 0.789 ± 0.085.
With 143B BONE the surviving fraction was 0.96 ± 0.034.
A549 LUNG showed a surviving fraction of 1.06 ± 0.024.
ASKA SYNOVIAL gave a surviving fraction of 0.482 ± 0.018.
In the case of BT20 BREAST, the surviving fraction is reported as 1.39 ± 0.066.
BT549 BREAST gave a surviving fraction of 0.616 ± 0.078.
With CADOES1 SOFT TISSUE the surviving fraction was 0.711 ± 0.077.
Work on CAL51 BREAST yielded a surviving fraction of 0.731 ± 0.027.
In the case of CAL120 BREAST, the surviving fraction is reported as 0.859 ± 0.038.
For CASKI CERVIX, the surviving fraction was 0.44 ± 0.047.
With CHLA90 AUTONOMIC GANGLIA the surviving fraction was 0.9213 ± 0.0085.
Work on CME SYNOVIAL yielded a surviving fraction of 1.13 ± 0.099.
In the case of COLO320DM LARGE INTESTINE, the surviving fraction is reported as 0.707 ± 0.047.
DU4475 BREAST was tested, and the surviving fraction was 0.469 ± 0.047.
Test System H23 LUNG has a surviving fraction of 0.776 ± 0.067.
For HCC38 BREAST, the surviving fraction was 1.11 ± 0.048.
Work on HCC70 BREAST yielded a surviving fraction of 0.39 ± 0.033.
HCC78 LUNG showed a surviving fraction of 0.33 ± 0.14.
HCC202 BREAST was tested, and the surviving fraction was 0.238 ± 0.012.
HCC1806 BREAST was tested, and the surviving fraction was 0.828 ± 0.013.
HCC1954 BREAST gave a surviving fraction of 0.482 ± 0.082.
With HCT15 LARGE INTESTINE the surviving fraction was 0.942 ± 0.073.
With HELA CERVIX the surviving fraction was 1.08 ± 0.031.
With HMLE3 BREAST the surviving fraction was 0.717 ± 0.052.
HMT3552 BREAST was tested, and the surviving fraction was 0.692 ± 0.02.
Work on HOS BONE yielded a surviving fraction of 0.822 ± 0.038.
For HOSMNG BONE, the surviving fraction was 0.752 ± 0.064.
HS57T BREAST was tested, and the surviving fraction was 0.747 ± 0.012.
With HS578T BREAST the surviving fraction was 0.652 ± 0.064.
HSSYII SYNOVIAL was tested, and the surviving fraction was 0.773 ± 0.024.
For HT1080 SOFT TISSUE, the surviving fraction was 0.997 ± 0.049.
Work on HU09 BONE yielded a surviving fraction of 0.363 ± 0.034.
In the case of JIMT1 BREAST, the surviving fraction is reported as 0.68 ± 0.023.
With “JURKAT HAEMATOPOIETIC AND LYMPHOID TISSUE” the surviving fraction was 0.471 ± 0.01.
Work on KPD BONE yielded a surviving fraction of 0.252 ± 0.0083.
With LM7 BONE the surviving fraction was 0.628 ± 0.041.
MCF7 BREAST gave a surviving fraction of 0.659 ± 0.033.
MDAMB134 BREAST was tested, and the surviving fraction was 0.629 ± 0.13.
MDAMB157 BREAST showed a surviving fraction of 0.947 ± 0.048.
With MDAMB231 BREAST the surviving fraction was 0.869 ± 0.027.

Same assay, conditions: 1000 nM; exposure time: 5 days
22RV1 PROSTATE was tested, and the surviving fraction was 0.582 ± 0.0085.
Test System 93VU HEADNECK has a surviving fraction of 0.649 ± 0.038.
143B BONE was tested, and the surviving fraction was 0.939 ± 0.033.
With A549 LUNG the surviving fraction was 1.09 ± 0.042.
ASKA SYNOVIAL showed a surviving fraction of 0.481 ± 0.022.
With BT20 BREAST the surviving fraction was 1.16 ± 0.05.
BT549 BREAST gave a surviving fraction of 0.46 ± 0.043.
In the case of CADOES1 SOFT TISSUE, the surviving fraction is reported as 0.591 ± 0.071.
For CAL51 BREAST, the surviving fraction was 0.56 ± 0.03.
With CAL120 BREAST the surviving fraction was 0.823 ± 0.043.
CASKI CERVIX gave a surviving fraction of 0.36 ± 0.022.
In the case of CHLA90 AUTONOMIC GANGLIA, the surviving fraction is reported as 0.947 ± 0.053.
Work on CME SYNOVIAL yielded a surviving fraction of 0.901 ± 0.093.
With COLO320DM LARGE INTESTINE the surviving fraction was 0.557 ± 0.056.
DU4475 BREAST was tested, and the surviving fraction was 0.444 ± 0.015.
In the case of H23 LUNG, the surviving fraction is reported as 0.6663 ± 0.0061.
With HCC38 BREAST the surviving fraction was 0.898 ± 0.12.
With HCC70 BREAST the surviving fraction was 0.312 ± 0.014.
HCC78 LUNG gave a surviving fraction of 0.192 ± 0.076.
Test System HCC202 BREAST has a surviving fraction of 0.238 ± 0.0064.
In the case of HCC1806 BREAST, the surviving fraction is reported as 0.682 ± 0.015.
For HCC1954 BREAST, the surviving fraction was 0.304 ± 0.0067.
With HCT15 LARGE INTESTINE the surviving fraction was 0.928 ± 0.026.
In the case of HELA CERVIX, the surviving fraction is reported as 1.19 ± 0.051.
Test System HMLE3 BREAST has a surviving fraction of 0.617 ± 0.018.
Test System HMT3552 BREAST has a surviving fraction of 0.62 ± 0.014.
For HOS BONE, the surviving fraction was 0.79 ± 0.012.
HOSMNG BONE showed a surviving fraction of 0.678 ± 0.027.
With HS57T BREAST the surviving fraction was 0.658 ± 0.092.
In the case of HS578T BREAST, the surviving fraction is reported as 0.618 ± 0.028.
HSSYII SYNOVIAL was tested, and the surviving fraction was 0.738 ± 0.032.
With HT1080 SOFT TISSUE the surviving fraction was 0.951 ± 0.044.
HU09 BONE was tested, and the surviving fraction was 0.272 ± 0.016.
For JIMT1 BREAST, the surviving fraction was 0.633 ± 0.034.
“JURKAT HAEMATOPOIETIC AND LYMPHOID TISSUE” gave a surviving fraction of 0.274 ± 0.0046.
In the case of KPD BONE, the surviving fraction is reported as 0.195 ± 0.0091.
Test System LM7 BONE has a surviving fraction of 0.579 ± 0.016.
With MCF7 BREAST the surviving fraction was 0.62 ± 0.042.
Work on MDAMB134 BREAST yielded a surviving fraction of 0.673 ± 0.18.
Test System MDAMB157 BREAST has a surviving fraction of 0.904 ± 0.1.
For MDAMB231 BREAST, the surviving fraction was 0.856 ± 0.011.
